The values that follow come from PMC9279640 (Acta Pharmaceutica Sinica. B, 2021).

Structures are written as SMILES.

Usually Kd stands for the equilibrium constant for the complex coming apart.

Holding throughout (format): binding
Test [1] deals with T1, mouse TREM2 (mTREM2) (Mus musculus, UniProt Q99NH8).
T1 sequence (Q99NH8 19-227): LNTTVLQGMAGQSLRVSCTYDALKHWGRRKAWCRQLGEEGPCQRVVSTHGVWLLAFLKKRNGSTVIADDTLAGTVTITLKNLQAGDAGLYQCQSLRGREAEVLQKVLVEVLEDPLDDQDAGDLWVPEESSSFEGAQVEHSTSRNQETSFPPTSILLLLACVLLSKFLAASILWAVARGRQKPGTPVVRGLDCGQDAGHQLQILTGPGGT
Put plainly: microscale thermophoresis with labelled recombinant TREM2.

Test [2] addresses APOE (apolipoprotein E) (Homo sapiens, UniProt P02649). Put plainly: microscale thermophoresis with labelled recombinant APOE. Background: In MST a laser heats a spot of the sample, and binding alters the fluorescence response.
The target in test [3] is T2, human TREM2 (hTREM2) (Homo sapiens, UniProt Q9NZC2).
T2 sequence (Q9NZC2 19-230): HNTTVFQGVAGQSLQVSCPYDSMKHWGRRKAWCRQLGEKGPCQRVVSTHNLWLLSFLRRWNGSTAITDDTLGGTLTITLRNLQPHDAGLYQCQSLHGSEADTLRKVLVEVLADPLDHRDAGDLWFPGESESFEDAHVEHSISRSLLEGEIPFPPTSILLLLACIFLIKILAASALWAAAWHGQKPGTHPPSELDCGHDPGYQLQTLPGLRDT
Nature of the test: microscale thermophoresis with labelled recombinant TREM2.

Test [4] has as its target T3, rat TREM2 (rTREM2) (Rattus norvegicus, UniProt A0A6G8MV71).
T3 sequence (A0A6G8MV71 19-229): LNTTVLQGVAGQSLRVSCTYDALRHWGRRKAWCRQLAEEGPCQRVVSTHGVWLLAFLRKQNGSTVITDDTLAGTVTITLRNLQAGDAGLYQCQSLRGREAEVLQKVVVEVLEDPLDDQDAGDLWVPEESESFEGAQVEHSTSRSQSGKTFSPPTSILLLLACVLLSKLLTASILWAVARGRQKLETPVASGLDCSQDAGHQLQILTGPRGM
Described as above.

The target in test [5] is T2, human TREM2 (hTREM2). Nature of the test: microscale thermophoresis.
The target in test [6] is T1, mouse TREM2 (mTREM2). Nature of the test: microscale thermophoresis.
In test [7] the target is T4, TREM2 D104A (hTREM2) (Homo sapiens, UniProt Q9NZC2, D104A).
T4 sequence (Q9NZC2 19-174 D104A limits assumed): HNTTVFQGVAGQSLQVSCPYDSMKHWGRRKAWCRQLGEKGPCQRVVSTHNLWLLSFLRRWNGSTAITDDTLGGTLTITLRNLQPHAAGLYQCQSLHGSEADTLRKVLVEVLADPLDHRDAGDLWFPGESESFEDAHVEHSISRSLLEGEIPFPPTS
Put plainly: microscale thermophoresis with labelled TREM2 D104A.

Chain of APOE (apolipoprotein E) (P02649 19-317): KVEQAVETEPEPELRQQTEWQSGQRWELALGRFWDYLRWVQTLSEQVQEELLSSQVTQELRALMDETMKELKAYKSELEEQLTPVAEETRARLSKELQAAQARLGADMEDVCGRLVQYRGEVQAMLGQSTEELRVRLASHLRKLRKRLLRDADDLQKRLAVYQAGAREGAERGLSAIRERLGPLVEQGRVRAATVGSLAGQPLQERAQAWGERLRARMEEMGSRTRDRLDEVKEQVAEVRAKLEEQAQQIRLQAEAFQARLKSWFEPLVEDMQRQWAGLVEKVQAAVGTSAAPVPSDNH

Consider `CCCCCCCCc1ccc(CC[C@](N)(CO)COP(=O)(O)O)cc1` [FTY720P], for which the Kd in test [1] is 72.6 ± 21 µM; in test [2] it was 15.9 ± 7.41 µM; in test [3], 6.75 ± 1.8 µM; in test [4], 7.17 ± 2.21 µM.

Consider `CCCCCCCCCCCCC/C=C/[C@@H](O)[C@@H](N)COP(=O)(O)O` [S1P], for which the Kd came out at 62.6 ± 11.9 µM in test [5]; 6.64 ± 1.68 µM in test [2]; 64.6 ± 16.6 µM in test [6]; 593 ± 97.6 µM in test [7]; 56.8 ± 14 µM in test [4].
